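Step 1: Grow cells in 96-well plates. Step 2: Expose to compound for 48 hours at 5 concentrations. Step 3: Interpolate endpoints linearly; if unreached, use highest concentration. GI50 is the concentration that inhibits growth by half. The concentration for full growth arrest is given as TGI.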
Key:
Assay in all cases: DTP human tumour cell line panel, 48 h
HCC-2998 colon = tested on: HCC-2998 colon
ACHN renal = tested on: ACHN renal
HCT-15 colon = tested on: HCT-15 colon
SR leukemia = tested on: SR leukemia
SF-268 CNS = tested on: SF-268 CNS
SW-620 colon = tested on: SW-620 colon
K-562 leukemia = tested on: K-562 leukemia
UACC-257 melanoma = tested on: UACC-257 melanoma
HOP-92 NSCLC = tested on: HOP-92 NSCLC
NCI-H522 lung = tested on: NCI-H522 lung

| SMILES | TGI (HCC-2998 colon) | TGI (ACHN renal) | TGI (HCT-15 colon) | TGI (SR leukemia) | TGI (SF-268 CNS) | TGI (SW-620 colon) | TGI (K-562 leukemia) | TGI (UACC-257 melanoma) | TGI (HOP-92 NSCLC) | TGI (NCI-H522 lung) | GI50 (HCC-2998 colon) | GI50 (ACHN renal) | GI50 (HCT-15 colon) | GI50 (HOP-92 NSCLC) | GI50 (UACC-257 melanoma) | GI50 (SF-268 CNS) | GI50 (SW-620 colon) | GI50 (K-562 leukemia) | GI50 (NCI-H522 lung) |
| --- | --- | --- | --- | --- | --- | --- | --- | --- | --- | --- | --- | --- | --- | --- | --- | --- | --- | --- | --- |
| O=C1C2c3[nH]c4ccccc4c3C3CCC(c4ccccc4)CC3C2C(=O)N1c1ccccc1 (stereo not given) | > 100 µM | > 100 µM | > 100 µM | > 100 µM | > 100 µM | > 100 µM | > 100 µM | – | – | – | – | – | – | – | – | – | – | – | – |
| CCCCCCCCCCCCCCCCCc1cc(Cl)nc(Cl)n1 | > 100 µM | > 100 µM | > 100 µM | > 100 µM | > 100 µM | > 100 µM | > 100 µM | > 100 µM | – | – | – | – | – | – | – | – | – | – | – |
| CCCCN1C(=O)C2c3[nH]c4ccccc4c3C3CCCCC3C2C1=O (mixture of isomers) | 62.4 µM | 27.7 µM | > 100 µM | – | 48.4 µM | > 100 µM | 28.3 µM | – | – | – | – | – | – | – | – | – | – | – | – |
| O=c1/c(=C/c2ccccc2O)sc2nc3ccccc3n12 | > 100 µM | > 100 µM | 49.8 µM | 61.3 µM | 56.7 µM | > 100 µM | 99.5 µM | > 100 µM | > 100 µM | – | – | – | – | – | – | – | – | – | – |
| C=CCNC(=O)ON1C(=O)CCC1=O | > 100 µM | > 100 µM | > 100 µM | – | > 100 µM | > 100 µM | > 100 µM | > 100 µM | > 100 µM | > 100 µM | – | – | – | – | – | – | – | – | – |
| CN(C(=N)c1ccccc1)c1ccccc1 | > 100 µM | – | > 100 µM | – | – | > 100 µM | > 100 µM | – | > 100 µM | – | – | – | – | – | – | – | – | – | – |
| CC(=O)CC(=O)ON(C)C(C)=O | > 100 µM | > 100 µM | – | > 100 µM | > 100 µM | > 100 µM | > 100 µM | 56.4 µM | – | > 100 µM | – | – | – | – | – | – | – | – | – |
| C/C(=N\NC(=O)C[n+]1ccccc1)c1sc(-c2nc(C)c(/C(C)=N/NC(=O)C[n+]3ccccc3)s2)nc1C | > 100 µM | > 100 µM | > 100 µM | – | > 100 µM | > 100 µM | > 100 µM | > 100 µM | > 100 µM | – | – | – | – | – | – | – | – | – | – |
| CCOC(=O)NC(=O)c1cn(CC(=O)NCC(=O)NCC(=O)N2CCN(CCn3c(C)nc(C(N)=O)c3N)CC2)c(=O)[nH]c1=O | > 100 µM | > 100 µM | > 100 µM | > 100 µM | > 100 µM | > 100 µM | > 100 µM | > 100 µM | > 100 µM | – | – | – | – | – | – | – | – | – | – |
| Clc1cc2nc[nH]c2cc1Cl | > 100 µM | > 100 µM | > 100 µM | – | > 100 µM | > 100 µM | > 100 µM | – | > 100 µM | – | – | – | – | – | – | – | – | – | – |
| Cc1cc(Cl)ccc1NC(=O)C1C(=O)C(=O)N(c2ccc(Cl)cc2C)C1=O (stereo not given) | > 100 µM | > 100 µM | > 100 µM | – | > 100 µM | > 100 µM | > 100 µM | > 100 µM | 54.2 µM | > 100 µM | – | – | – | – | – | – | – | – | – |
| CCOc1cccc2sc(N)nc12 | > 100 µM | > 100 µM | > 100 µM | – | > 100 µM | > 100 µM | > 100 µM | > 100 µM | > 100 µM | > 100 µM | – | – | – | – | – | – | – | – | – |
| COC(=O)c1ccc(CS(=O)(=O)c2ccccc2)cc1 | > 100 µM | > 100 µM | > 100 µM | > 100 µM | > 100 µM | > 100 µM | > 100 µM | > 100 µM | > 100 µM | – | – | – | – | – | – | – | – | – | – |
| COc1cccc(-c2cc(=O)c3cc(C)c(C)c(C(=O)O)c3o2)c1 | > 100 µM | > 100 µM | > 100 µM | – | > 100 µM | > 100 µM | > 100 µM | > 100 µM | > 100 µM | > 100 µM | – | – | – | – | – | – | – | – | – |
| C[C@@]1([C@H](OC(=O)c2cccc3ccccc23)C(N)=O)CO1 | 18.2 µM | 2.2 µM | 10.7 µM | – | > 43 µM | – | > 37.5 µM | > 49 µM | 17.3 µM | 6 µM | 4.51 µM | 0.396 µM | 1.72 µM | 2.81 µM | 4.65 µM | 4.62 µM | 1.1 µM | 1.13 µM | – |
| CC(=O)O[C@H]1CC[C@@]2(C)C(=CC[C@@H]3C2CC[C@]2(C)C(=O)NC(=O)CC32)C1 (stereo not given in full) | > 100 µM | > 100 µM | > 100 µM | – | > 100 µM | > 100 µM | > 100 µM | > 100 µM | > 100 µM | 86.2 µM | – | – | – | – | – | – | – | – | – |
| COc1ccc(-c2cnc(SCC(=O)c3c(C)n(C)n(-c4ccccc4)c3=O)n2-c2ccc(OC)cc2)cc1 | > 50 µM | > 50 µM | > 50 µM | – | > 50 µM | > 50 µM | > 50 µM | > 50 µM | > 50 µM | > 50 µM | 44.9 µM | > 50 µM | > 50 µM | > 50 µM | > 50 µM | > 50 µM | > 50 µM | 33.2 µM | > 50 µM |
